Laboratory results published in patent US8399026B2, “Peptides isolated from spider venom, and uses thereof” (priority 2009, dated 2013).
“Also recorded” adds a separate entry of the source.

Legend:
[1] = test system: mouse embryonic stem cells derived cardiomyocytes (mES-CM); format: cell-based
spinal-ligated rats = format: in vivo, rat
Description: This study aimed to evaluate the analgesic indications of compound C using the Chung model of neuropathic pain in rats. This study was performed at PsychoGenics, Inc., headquartered at 765 Old Saw Mill River Road, Tarrytown, N.Y.
Male Sprague Dawley rats (100-125 g) from Harlan (Indianapolis, Ind.) were used in the study. Upon receipt, rats were assigned unique identification numbers and were group housed with 3 rats per cage in polycarbonate cages with micro-isolator filter tops. All rats were examined, handled, and weighed prior to initiation of the study to assure adequate health and suitability. During the course of the study, 12/12 light/dark cycles were maintained, with lights on at 7:00 am EST. The room temperature was maintained between 20 and 23° C. with a relative humidity maintained around 50%. Chow and water were provided ad libitum for the duration of the study.
All compounds were administered at a dose volume of 5 ml/kg, q.d. for 5 days (Days 17-21 post-surgery). Reference compound: Gabapentin (100 mg/kg; TRC, Lot No. 1-SWM-154-1) was dissolved in 0.5% carboxy-methylcellulose (CMC) in water and administered orally. Test Compound: Compound C (0.25, 0.625, and 1.25 mg/kg; Lot n/a) was dissolved in distilled H2O to a stock concentration (20×), divided into single-use aliquots, and frozen. On each test day, one aliquot was thawed and diluted 20-fold with PBS (pH 7.2), and used as stock for formulation of test doses. Compound C was administered subcutaneously.
Under general anesthesia with continuous inhalation of isoflurane, surgery was performed with aseptic procedures in surgery unit. The skin at the area of the lower lumber and sacral level of the rat was shaved and disinfected with betadine and alcohol. Sterile ophthalmic ointment was used to lubricate the eyes. Animals were observed continuously for the level of anesthesia, testing for the animal's reflex response to tail or paw pinch and closely monitoring the animal's breathing. A heating pad was used to maintain body temperature at 37° C. while the animals recovered from anesthesia. A left longitudinal incision at the level next to the vertebral column was made and the left paraspinal muscles were separated. The transverse process of L6 was removed and nearby connective tissue cleaned to expose L5 and L6 spinal nerves. After the nerves were isolated and clearly visualized, 4-0 silk threads were used to ligate the left L5. The muscles were sutured with 4-0 silk threads and the wound closed by staples. All rats received an analgesic (buprenorphine, 0.05 mg/kg, s.c.) immediately before and 6 hours after surgery. Each rat was monitored until awake and moving freely around the recovery chamber. Animals were then single-housed for the duration of the study. Rats were allowed to recover for 2 weeks after surgery prior to testing.
Withdrawal from a mechanical stimulus was measured by applying von Frey (VF) filaments of ascending bending force to the plantar surface of the hind paws (ipsilateral and contralateral). A positive response was defined as withdrawal from the von Frey filament. Confirmation of the paw withdrawal threshold (PWT) is tested by assessing the response to the filament above and below the withdrawal response.
Rats were brought to the experimental room and allowed to habituate in the room for one hour prior to testing, and acclimated to the observation chambers for 15 minutes prior to taking PWT measurements.
Pre-operative baseline testing: Prior to surgery, all rats were tested using the VF test.
Post-operative baseline testing: On Day 14 following surgery, baseline responses were taken from all surgically-operated rats, and an ipsilateral PWT greater than 4.5 g was used as an exclusion criterion (13 rats excluded). Rats were subsequently balanced and assigned to treatment groups (n=10 per group) based on their post-op PWT values. […]

[2] = baseline of group assigned to 100 mg/kg, mean ± SEM

Structure (SMILES) | effect of positive control on action potential generation in cardiomyocytes [1] | ipsilateral paw withdrawal threshold compared to vehicle, chronic (spinal-ligated rats; 100 mg/kg orally q.d. 5 days, Day 21, all time points) | ipsilateral paw withdrawal threshold compared to vehicle, acute (spinal-ligated rats; 100 mg/kg orally, Day 17, data collapsed across 1 and 3 hour time points) | time dependence of effect on ipsilateral paw withdrawal threshold, chronic (spinal-ligated rats; 100 mg/kg orally, Day 21, 1 hr. versus 3 hr. post-administration) | ipsilateral paw withdrawal threshold (PWT), summary (spinal-ligated rats; 100 mg/kg, acute or 5-day administration, 1 and 3 hours following administration) | Contralateral paw withdrawal threshold prior to drug administration (spinal-ligated rats; [2]) | Ipsilateral paw withdrawal threshold prior to drug administration (spinal-ligated rats; [2]) | signs of sedation or toxicity (spinal-ligated rats; during pretreatment or testing, gabapentin 100 mg/kg orally, compound C 0.25, 0.625, 1.25 mg/kg subcutaneously)
NC1=N[C@H](O)[C@H]2[C@H]3O[C@]4(O)O[C@@H]([C@@H](O)[C@@]2(N1)[C@@H]4O)[C@]3(O)CO [TTX, Tetrodotoxin] | only the higher dose inhibited action potential generation; also recorded: quite evident; also recorded: significant action | – | – | – | – | – | – | –
NCC1(CC(=O)O)CCCCC1 [Gabapentin] | – | significantly increased | significantly increased | significantly greater at 1 hr. compared to 3 hr. post-administration | significantly increased | 48.70 ± 5.83 | 2.94 ± 0.29 | not observed
